This is an account of results in BindingDB's records for patent US10561657 (Centaurus Biophrama, 2020).

Molecules are shown by their SMILES.

In the test the target is Tyrosine-protein kinase JAK2 (Homo sapiens, UniProt O60674). Briefly: Enzymatic Activity Assay. Here is the method: A testing platform for kinase activity of JAK2 (wild type and V617F mutant type) was established based on Homogeneous Time-Resolved Fluorescence (HTRF) assay, and the activities of the compounds were tested using the platform. The compounds were subjected to three-fold gradient dilutions with 100% DMSO with a starting concentration of 1 mM (11 dilutions in total). 4 μL of each dilution was added to 96 μL of reaction buffer (50 mM HEPES, pH 7.4, 10 mM MgCl2, 1 mM EGTA, 0.01% Tween-20, 0.005% BAS, 2 mM DTT) and mixed homogeneously. […] The mixture was mixed homogeneously by centrifugation. […] The plate was incubated in the incubator for 1 hr, and then the fluorescence values were read on Envision (available from PerkinElmer). […] The enzymatic activity was representd by a ratio of the two readout at the two emission wavelengths.
Sequence of Tyrosine-protein kinase JAK2 (O60674 whole entry): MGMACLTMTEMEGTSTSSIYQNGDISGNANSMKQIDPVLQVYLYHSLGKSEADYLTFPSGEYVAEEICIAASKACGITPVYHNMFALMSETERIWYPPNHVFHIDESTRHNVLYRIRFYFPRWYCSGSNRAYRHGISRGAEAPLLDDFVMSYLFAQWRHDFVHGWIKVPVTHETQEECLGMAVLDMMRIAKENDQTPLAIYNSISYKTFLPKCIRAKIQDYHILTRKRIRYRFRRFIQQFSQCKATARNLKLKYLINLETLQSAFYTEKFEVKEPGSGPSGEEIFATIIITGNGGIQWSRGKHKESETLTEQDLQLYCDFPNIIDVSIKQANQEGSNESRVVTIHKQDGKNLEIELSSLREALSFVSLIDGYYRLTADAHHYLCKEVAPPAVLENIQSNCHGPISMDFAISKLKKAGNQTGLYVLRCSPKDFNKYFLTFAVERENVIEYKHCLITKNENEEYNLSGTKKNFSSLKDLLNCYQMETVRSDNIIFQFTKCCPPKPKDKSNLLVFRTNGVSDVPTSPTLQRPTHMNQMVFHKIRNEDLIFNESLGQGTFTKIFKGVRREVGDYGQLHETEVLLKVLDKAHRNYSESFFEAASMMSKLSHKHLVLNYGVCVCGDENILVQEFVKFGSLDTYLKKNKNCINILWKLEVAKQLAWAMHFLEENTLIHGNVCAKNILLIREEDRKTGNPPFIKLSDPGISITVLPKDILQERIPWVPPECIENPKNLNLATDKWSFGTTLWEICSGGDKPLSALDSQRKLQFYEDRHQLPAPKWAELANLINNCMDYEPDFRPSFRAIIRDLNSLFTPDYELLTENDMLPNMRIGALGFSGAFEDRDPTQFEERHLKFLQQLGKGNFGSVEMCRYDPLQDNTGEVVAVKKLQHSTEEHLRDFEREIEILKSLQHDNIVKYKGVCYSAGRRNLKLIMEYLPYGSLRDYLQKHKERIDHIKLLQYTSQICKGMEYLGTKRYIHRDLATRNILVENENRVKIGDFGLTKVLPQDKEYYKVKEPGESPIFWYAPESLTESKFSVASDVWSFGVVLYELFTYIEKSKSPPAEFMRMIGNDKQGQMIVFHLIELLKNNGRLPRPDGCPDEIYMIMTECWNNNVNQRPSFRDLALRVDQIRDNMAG

The IC50 is the concentration that gives 50% inhibition. Read a high IC50 as a need for much substance. As for `NC(=O)CC(C1CCCC1)n1cc(-c2ncnc3[nH]ccc23)c(N)n1` (configuration not stated) [US10561657, Example 2], the IC50 was less than 100 nM.

With `CS(=O)(=O)Nc1nn(C(CC#N)C2CCCC2)cc1-c1ncnc2[nH]ccc12` (configuration not stated) [US10561657, Example 10], the IC50 is less than 20 nM.
